Some test systems named below: TK-10; Malme-3M; K562; SNB-19; HL-60; MOLT-4; Hs-578T; A549; SN12C; UACC-62; U-251; 786-0; T47D; OVCAR-8; NCI-H460; ACHN; SF-539; NCI-H226; PC-3; HOP-92.
Test in all cases: DTP human tumour cell line panel, 48 h

The record followed here is ChEMBL document CHEMBL1201862, “PubChem BioAssay data set” (2004).

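Protocol summary: plate cells (96-well), add compound at 5 concentrations, incubate 48 h, interpolate endpoints linearly. The concentration for 50% growth inhibition is given as GI50.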 Active and inactive are the calls of the source. Rule as the data show it: active = GI50 up to about 1.1 µM and inactive = higher.

In general, GI50 refers to the concentration that inhibits growth by half. In the case of `COc1ccccc1C1SCC(=O)N1c1ccc(-c2ccc(-n3c(-c4ccccc4)nc4ccccc4c3=O)cc2)cc1` (stereo not drawn), the GI50 in the assay on TK-10, with Malme-3M, in the assay with K562, with SNB-19, in the assay with HL-60 and in the assay on MOLT-4 was > 100 µM (inactive) throughout. For the same compound, the GI50 was > 100 µM (inactive) in the assay with Hs-578T; > 100 µM (inactive) with A549; > 100 µM (inactive) with SN12C; 84.3 µM (inactive) with UACC-62; > 100 µM (inactive) in the assay with U-251; > 100 µM (inactive) in the assay with 786-0. Besides, the GI50 in the assay on T47D was 91 µM (inactive); in the assay on OVCAR-8, > 100 µM (inactive); in the assay with NCI-H460, > 100 µM (inactive); with ACHN, > 100 µM (inactive); in the assay with SF-539 it was 31 µM (inactive); in the assay on NCI-H226 it was > 100 µM (inactive). The GI50 in the assay on PC-3 is > 100 µM (inactive).
In the case of `CN1C(=O)c2ccccc2C(O)(c2ccccc2)C1(O)c1ccccc1` (stereo not drawn), the GI50 is 68.7 µM (inactive) in the assay on TK-10; > 100 µM (inactive) with Malme-3M; > 100 µM (inactive) with K562; > 100 µM (inactive) in the assay on SNB-19; 48.1 µM (inactive) with MOLT-4; 29.2 µM (inactive) in the assay on Hs-578T. Moreover, the GI50 in the assay on HOP-92 is 14.4 µM (inactive); in the assay with A549 it was 69.5 µM (inactive); in the assay on SN12C, > 100 µM (inactive); in the assay on UACC-62 it was 64.4 µM (inactive); in the assay on U-251, > 100 µM (inactive); in the assay on 786-0, > 100 µM (inactive). Besides, the GI50 in the assay on T47D was 61.2 µM (inactive); in the assay on OVCAR-8, > 100 µM (inactive); in the assay on NCI-H460 it was 19.2 µM (inactive); with ACHN, > 100 µM (inactive); in the assay with SF-539, > 100 µM (inactive); with NCI-H226, > 100 µM (inactive). For the same compound, in the assay with PC-3, the GI50 was 52.6 µM (inactive).
For the compound `Cc1n[nH]c(=O)n1N1C(=O)c2ccccc2C1=O`, the GI50 in the assay with TK-10, with Malme-3M, with K562, in the assay with SNB-19, in the assay on MOLT-4 and in the assay on Hs-578T was > 100 µM (inactive) in each case. The GI50 with HOP-92, in the assay with A549, with SN12C, in the assay on UACC-62, with U-251 and in the assay on 786-0 was > 100 µM (inactive) throughout. Besides, the GI50 with T47D, in the assay on OVCAR-8, in the assay on NCI-H460, in the assay with ACHN, with SF-539 and with NCI-H226 was > 100 µM (inactive) in each case. Also, the GI50 with PC-3 was > 100 µM (inactive).
For `CCC(c1ccccc1)c1cc(C(C)(C)C)cc(C(C)(C)C)c1O` (stereo not drawn), the GI50 in the assay with TK-10 was 15.5 µM (inactive); in the assay with Malme-3M, 13.9 µM (inactive); in the assay with K562 it was 16.7 µM (inactive); in the assay with SNB-19, 18.3 µM (inactive); in the assay with Hs-578T it was 16.3 µM (inactive); with HOP-92 it was 16.5 µM (inactive). For the same compound, the GI50 is 16.3 µM (inactive) in the assay on A549; 17.3 µM (inactive) in the assay on SN12C; 18 µM (inactive) in the assay on UACC-62; 17.7 µM (inactive) in the assay with U-251; 15.6 µM (inactive) with 786-0; 16.1 µM (inactive) with T47D. In addition, the GI50 in the assay with OVCAR-8 was 17.3 µM (inactive); with NCI-H460 it was 17.5 µM (inactive); in the assay with ACHN, 18.6 µM (inactive); in the assay on SF-539, 17.4 µM (inactive); with NCI-H226 it was 18.9 µM (inactive); in the assay with PC-3, 17.7 µM (inactive).
Take `CCCCCCCCCCCCCCCCC(=O)NCC(=O)NCC(=O)NC(Cc1ccccc1)C(=O)Oc1ccc([N+](=O)[O-])cc1` (stereo not drawn): the GI50 is 71 µM (inactive) with TK-10; 23.3 µM (inactive) with K562; > 10 µM (inactive) in the assay on SNB-19; 50 µM (inactive) in the assay with HL-60; 16.4 µM (inactive) with MOLT-4; > 100 µM (inactive) in the assay with Hs-578T. Also, the GI50 with HOP-92 was 32.1 µM (inactive); in the assay with A549, > 10 µM (inactive); in the assay with SN12C it was 19.7 µM (inactive); in the assay with UACC-62 it was 20.7 µM (inactive); in the assay with U-251 it was 18.4 µM (inactive); with 786-0, 27.5 µM (inactive). For the same compound, the GI50 in the assay with T47D is 30.7 µM (inactive); with OVCAR-8, 19.2 µM (inactive); with NCI-H460, 18.3 µM (inactive); in the assay on ACHN, > 100 µM (inactive); with SF-539, 27.6 µM (inactive); in the assay with NCI-H226 it was 35 µM (inactive). Moreover, the GI50 in the assay with PC-3 was 31.5 µM (inactive).
On to `CC1(C)CNC(c2ccc3c(c2)Cc2cc(C4=NC(C)(C)CN4)ccc2-3)=N1`, for which the GI50 in the assay with TK-10 was > 100 µM (inactive); in the assay with Malme-3M, 24.7 µM (inactive); with K562 it was 24.4 µM (inactive); in the assay with SNB-19 it was 35.1 µM (inactive); in the assay with MOLT-4, 31.9 µM (inactive); in the assay with Hs-578T it was 64.7 µM (inactive). For the same compound, the GI50 was 90.8 µM (inactive) in the assay on HOP-92; > 100 µM (inactive) in the assay with A549; 36.6 µM (inactive) in the assay with SN12C; 25.3 µM (inactive) in the assay on UACC-62; 22 µM (inactive) in the assay on U-251; 49.8 µM (inactive) with 786-0. Moreover, the GI50 with T47D is 61.2 µM (inactive); in the assay on OVCAR-8 it was 37 µM (inactive); in the assay with NCI-H460, 30.8 µM (inactive); in the assay on ACHN, > 100 µM (inactive); in the assay on NCI-H226, 49.4 µM (inactive); in the assay on PC-3, 39.8 µM (inactive).
With `Cc1c(/C=N\NC(=S)N2CCN(C(=S)N/N=C\c3c(C)n(C)n(-c4ccccc4)c3=O)CC2)c(=O)n(-c2ccccc2)n1C`, the GI50 is 5.7 µM (inactive) in the assay with TK-10; 72.4 µM (inactive) in the assay with Malme-3M; 47.5 µM (inactive) in the assay on SNB-19; 37.4 µM (inactive) with MOLT-4; 33 µM (inactive) in the assay with Hs-578T; 40.9 µM (inactive) in the assay with HOP-92. In addition, the GI50 was 47.9 µM (inactive) in the assay with A549; 32.9 µM (inactive) with UACC-62; 29.1 µM (inactive) in the assay on U-251; 33.7 µM (inactive) with 786-0; 36.1 µM (inactive) in the assay with T47D; 42 µM (inactive) in the assay on NCI-H460. Also, the GI50 was 21.2 µM (inactive) with ACHN, > 100 µM (inactive) with SF-539, > 100 µM (inactive) with NCI-H226 and 32.9 µM (inactive) with PC-3.
As to `COC(=O)c1cc2c(cc1CC1Cc3cc4c(cc3C1=O)CCC4)CCC2` (stereo not drawn), the GI50 with TK-10 was 73.1 µM (inactive); in the assay with Malme-3M it was 53 µM (inactive); in the assay with K562, 20.2 µM (inactive); with SNB-19, > 100 µM (inactive); in the assay with HL-60, > 100 µM (inactive); in the assay with MOLT-4 it was 13.5 µM (inactive). Also, the GI50 in the assay on Hs-578T was 15 µM (inactive); with A549, 40.3 µM (inactive); in the assay on SN12C, 57.5 µM (inactive); in the assay with UACC-62, 47.2 µM (inactive); in the assay on U-251, 46 µM (inactive); in the assay on 786-0, 83.8 µM (inactive). Further, the GI50 was 24.9 µM (inactive) with T47D; 74 µM (inactive) in the assay with OVCAR-8; 40 µM (inactive) in the assay with NCI-H460; > 100 µM (inactive) in the assay on ACHN; 58.9 µM (inactive) in the assay with SF-539; 56.6 µM (inactive) in the assay on NCI-H226. For the same compound, in the assay on PC-3, the GI50 was 10.7 µM (inactive).
In the case of `O=S(=O)(c1ccc(NC(=S)N/N=C/c2ccccc2O)cc1)N1CCCCC1`, the GI50 with TK-10 was < 0.0457 µM (active); in the assay with Malme-3M, 0.181 µM (active); in the assay with K562, 0.341 µM (active); in the assay on SNB-19, 0.879 µM (active); in the assay on Hs-578T it was 1.91 µM (inactive); with HOP-92, 12.2 µM (inactive). The GI50 in the assay with A549 is 0.255 µM (active); with UACC-62, < 0.01 µM (active); in the assay with 786-0, 0.188 µM (active); in the assay with T47D, 0.419 µM (active); in the assay with ACHN it was < 0.01 µM (active); with SF-539 it was 0.326 µM (active). Further, the GI50 in the assay with NCI-H226 was 0.151 µM (active); in the assay on PC-3, 0.191 µM (active).
Regarding `CN(N=O)C(=O)Nc1ccc(C(=O)O)cc1`, the GI50 in the assay with TK-10, with K562, with SNB-19, in the assay on HL-60, in the assay on MOLT-4 and with Hs-578T was > 100 µM (inactive) each time. Further, the GI50 in the assay with HOP-92, with A549, with SN12C, in the assay on UACC-62, in the assay with U-251 and in the assay with 786-0 was > 100 µM (inactive) throughout. Also, the GI50 in the assay with T47D, in the assay with OVCAR-8, in the assay on NCI-H460, in the assay with ACHN, in the assay with SF-539 and in the assay with NCI-H226 was > 100 µM (inactive) throughout. The GI50 in the assay with PC-3 was > 100 µM (inactive).
For the compound `CCCCC/C=C1/CC(CO)(COC(=O)CC(C(C)C)C(C)C)OC1=O` (stereo not drawn), the GI50 with TK-10 is 11.8 µM (inactive); in the assay on Malme-3M, 3.27 µM (inactive); with K562 it was 5.75 µM (inactive); with SNB-19 it was 7.62 µM (inactive); with MOLT-4, 5.42 µM (inactive); in the assay on Hs-578T it was 2.28 µM (inactive). Further, the GI50 in the assay on HOP-92 is 7.35 µM (inactive); in the assay on A549, 11.1 µM (inactive); in the assay on SN12C, 12.4 µM (inactive); in the assay with UACC-62, 13.7 µM (inactive); in the assay with U-251, 14.1 µM (inactive); in the assay with 786-0, 8.53 µM (inactive). The GI50 in the assay with T47D was 17.5 µM (inactive); in the assay on OVCAR-8 it was 17.2 µM (inactive); in the assay with NCI-H460, 13.2 µM (inactive); in the assay with ACHN, 11.4 µM (inactive); in the assay with NCI-H226, 12.1 µM (inactive); in the assay with PC-3 it was 10.1 µM (inactive).
